Test results reported in PMC8806001 (ACS Pharmacology & Translational Science, 2022).

Experiments:
[1] = biological target: T1, SARS-CoV-2 PL^pro (Severe acute respiratory syndrome coronavirus 2, UniProt P0DTD1); assay type: biochemical; settings: 200 nM PL^pro, 5 mM DTT, pH 7.5, 30 °C; highest concentration 60 μM
[2] = biological target: T1, SARS-CoV-2 PL^pro; experiment: Thermal shift binding assay; settings: effect on stability of PL^pro
[3] = biological target: T1, SARS-CoV-2 PL^pro; experiment: cell-based
[4] = test system: SARS-CoV PL^pro; settings: read-out: IC50 against SARS-CoV PL^pro; cited from earlier work
[5] = test system: MERS-CoV PL^pro; settings: read-out: IC50 against MERS-CoV PL^pro; cited from earlier work
[6] = test system: 293T cells

SMILES | Validation FRET IC50 [1] | TSA binding result (in words) [2] | FlipGFP EC50 [3] | IC50 [4] [µM] | IC50 [5] [µM] | EC50 ([3]; FlipGFP EC50) [µM] | Cytotoxicity in FlipGFP assay (in words) [6]
Sc1ncnc2nc[nH]c12 [6-mercaptopurine] | not active | not active | not active | 21.6 | 26.9 | – | –
Nc1nc2nc[nH]c2c(=S)[nH]1 [6-thioguanine] | – | did not show binding | not active | 5 | 24.4 | – | –
C[C@H]1COC2=C1C(=O)C(=O)c1c2ccc2c1CCCC2(C)C [Cryptotanshinone] | – | destabilization | not active | – | – | – | –
Cc1cccc2c3c(ccc12)C1=C(C(=O)C3=O)[C@@H](C)CO1 [Dihydrotanshinone I] | – | did not bind | not active | – | – | – | –
Cc1coc2c1C(=O)C(=O)c1c-2ccc2c1CCCC2(C)C [Tanshinone IIA] | – | denaturation of the protein (no melting peak) | not active | – | – | > 20 | –
Cc1coc2c1C(=O)C(=O)c1c-2ccc2c(C)cccc12 [Tanshinone I] | – | destabilization | not active | – | – | – | –
COCCn1c2c([n+](Cc3cnccn3)c1C)C(=O)c1ccccc1C2=O [YM155] | – | no effect | not conclusive | – | – | – | cytotoxic
